# The supplement of paper PMC8967900
# Assays:
# Test in all cases: selective drug sensitivity score (sDSS, relative to normal bone marrow) (sDSS (score)); higher = more potent and effective on the cell line relative to normal bone marrow cells
# Details in all cases: 72 h
# COG-LL-317 = tested on: COG-LL-317
# COG-LL-332h = tested on: COG-LL-332h
# TANOUE = tested on: TANOUE
# 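Further: ALL cell lines in 384-well plates, five doses spanning 10,000-fold, each plate scaled between vehicle and 100 µmol/L benzalkonium chloride controls, sDSS an adapted area-under-curve metric.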
structure (smiles),measurement,setting,value
C=C1C[C@@H]2CC[C@@]34C[C@H]5O[C@H]6[C@@H](O3)[C@H]3O[C@H](CC[C@@H]3O[C@H]6[C@H]5O4)CC(=O)C[C@@H]3[C@@H](OC)[C@@H](C[C@H](O)CN)O[C@H]3C[C@H]3O[C@@H](CC[C@@H]1O2)C[C@@H](C)C3=C [Eribulin] (top concentration 1000 nM),selective drug sensitivity score,COG-LL-317,26.3
same,selective drug sensitivity score,COG-LL-332h,20.6
same,selective drug sensitivity score,TANOUE,-8.6
C/C(=C\c1csc(C)n1)[C@@H]1C[C@@H]2O[C@]2(C)CCC[C@H](C)[C@H](O)[C@@H](C)C(=O)C(C)(C)[C@@H](O)CC(=O)N1 [Ixabepilone] (top concentration 1000 nM),selective drug sensitivity score,COG-LL-317,2.98
same,selective drug sensitivity score,COG-LL-332h,4.08
same,selective drug sensitivity score,TANOUE,-1.92
Cn1nnc2c(C(N)=O)ncn2c1=O [Temozolomide] (top concentration 100000 nM),selective drug sensitivity score,COG-LL-317,-0.04
same,selective drug sensitivity score,COG-LL-332h,-0.04
same,selective drug sensitivity score,TANOUE,-0.04
O=C1c2c(O)ccc(O)c2C(=O)c2c(NCCNCCO)ccc(NCCNCCO)c21 [Mitoxantrone] (top concentration 1000 nM),selective drug sensitivity score,COG-LL-317,16.2
same,selective drug sensitivity score,COG-LL-332h,11.7
same,selective drug sensitivity score,TANOUE,-12.9
C#Cc1cccc(Nc2ncnc3cc4c(cc23)OCCOCCOCCO4)c1 [Icotinib] (top concentration 10000 nM),selective drug sensitivity score,COG-LL-317,0
same,selective drug sensitivity score,COG-LL-332h,0.3
same,selective drug sensitivity score,TANOUE,0
CCOCc1nc2c(N)nc3ccccc3c2n1CC(C)(C)O [Resiquimod] (top concentration 10000 nM),selective drug sensitivity score,COG-LL-317,-4.02
same,selective drug sensitivity score,COG-LL-332h,-4.72
same,selective drug sensitivity score,TANOUE,-3.02
Cc1cnc(NC(=O)Nc2cc(Br)c(C)cc2OC[C@@H]2CNCCO2)cn1 [Rabusertib] (top concentration 1000 nM),selective drug sensitivity score,COG-LL-317,7.36
same,selective drug sensitivity score,COG-LL-332h,-0.74
same,selective drug sensitivity score,TANOUE,0.46
CC1(C)NC(=O)N(c2ccc([N+](=O)[O-])c(C(F)(F)F)c2)C1=O [Nilutamide] (top concentration 10000 nM),selective drug sensitivity score,COG-LL-317,-0.48
same,selective drug sensitivity score,COG-LL-332h,-0.48
same,selective drug sensitivity score,TANOUE,-0.48
CC(C)Cn1cnc2c(N)nc3ccccc3c21 [Imiquimod] (top concentration 2500 nM),selective drug sensitivity score,COG-LL-317,0
same,selective drug sensitivity score,COG-LL-332h,0
same,selective drug sensitivity score,TANOUE,0.1
Cc1c(F)cc(C(=O)NC2CC2)cc1-c1ccc(C(=O)NCC(C)(C)C)cn1 [Losmapimod] (top concentration 10000 nM),selective drug sensitivity score,COG-LL-317,-0.18
same,selective drug sensitivity score,COG-LL-332h,-0.18
same,selective drug sensitivity score,TANOUE,1.32
CC[C@]12C=CCN3CC[C@@]4(c5cc([C@@]6(C(=O)OC)C[C@@H]7C[C@@H](C(C)(F)F)CN(Cc8c6[nH]c6ccccc86)C7)c(OC)cc5N(C)[C@H]4[C@@](O)(C(=O)OC)[C@@H]1OC(C)=O)[C@@H]32 [Vinflunine] (top concentration 1000 nM),selective drug sensitivity score,COG-LL-317,3.88
same,selective drug sensitivity score,COG-LL-332h,3.78
same,selective drug sensitivity score,TANOUE,-1.32
O=C(Nc1cccnc1)N1CCC(Cc2cccc(Oc3ccc(C(F)(F)F)cn3)c2)CC1 [PF-3845] (top concentration 10000 nM),selective drug sensitivity score,COG-LL-317,0.26
same,selective drug sensitivity score,COG-LL-332h,2.16
same,selective drug sensitivity score,TANOUE,3.66
Nc1nc2cc(-c3ccc4ncc(C(=O)N5CCOCC5)n4c3)ccc2o1 [Serabelisib] (top concentration 10000 nM),selective drug sensitivity score,COG-LL-317,-1.54
same,selective drug sensitivity score,COG-LL-332h,-1.14
same,selective drug sensitivity score,TANOUE,-1.54
Oc1ccc2c(c1)CC[C@H](c1ccccc1)[C@@H]2c1ccc(OCCN2CCCC2)cc1 [Lasofoxifene] (top concentration 1000 nM),selective drug sensitivity score,COG-LL-317,-1.28
same,selective drug sensitivity score,COG-LL-332h,-1.28
same,selective drug sensitivity score,TANOUE,-1.08
CC(C)n1cnc2c(NCCc3ccc(O)cc3)nc(-c3csc4ccccc34)nc21 [StemRegenin_1] (top concentration 10000 nM),selective drug sensitivity score,COG-LL-317,-0.3
same,selective drug sensitivity score,COG-LL-332h,0.8
same,selective drug sensitivity score,TANOUE,4.2
COc1cccc(-c2ccc(NC(=O)C3=C(C(=O)O)CCC3)c(F)c2)c1 [Vidofludimus] (top concentration 10000 nM),selective drug sensitivity score,COG-LL-317,4.3
same,selective drug sensitivity score,COG-LL-332h,4.9
same,selective drug sensitivity score,TANOUE,3
Cc1ccc(F)c(NC(=O)Nc2ccc(-c3cccc4[nH]nc(N)c34)cc2)c1 [Linifanib] (top concentration 1000 nM),selective drug sensitivity score,COG-LL-317,-1.12
same,selective drug sensitivity score,COG-LL-332h,-1.12
same,selective drug sensitivity score,TANOUE,-1.12
CC/C(=C(\c1ccccc1)c1ccc(OCCN(C)C)cc1)c1ccccc1 [Tamoxifen] (top concentration 10000 nM),selective drug sensitivity score,COG-LL-317,1.42
same,selective drug sensitivity score,COG-LL-332h,1.32
same,selective drug sensitivity score,TANOUE,-2.28
CC[C@H](C)C(=O)O[C@H]1C[C@H](O)C=C2C=C[C@H](C)[C@H](CC[C@@H](O)C[C@@H](O)CC(=O)O)[C@H]21 [Pravastatin] (top concentration 10000 nM),selective drug sensitivity score,COG-LL-317,0.94
same,selective drug sensitivity score,COG-LL-332h,-0.66
same,selective drug sensitivity score,TANOUE,-0.66
C[C@]12CC[C@@H]3c4ccc(O)cc4C[C@@H](CCCCCCCCC[S+]([O-])CCCC(F)(F)C(F)(F)F)[C@H]3[C@@H]1CC[C@@H]2O (stereo partly specified) [Fulvestrant] (top concentration 1000 nM),selective drug sensitivity score,COG-LL-317,0
same,selective drug sensitivity score,COG-LL-332h,0
same,selective drug sensitivity score,TANOUE,0
C=CC(=O)N1CCC(Oc2cc3c(Nc4ccc(Cl)c(Cl)c4F)ncnc3cc2OC)CC1 [Poziotinib] (top concentration 1000 nM),selective drug sensitivity score,COG-LL-317,2.68
same,selective drug sensitivity score,COG-LL-332h,1.48
same,selective drug sensitivity score,TANOUE,-0.22
C[C@H]1CNCCCN1S(=O)(=O)c1cccc2cncc(F)c12 [Ripasudil] (top concentration 10000 nM),selective drug sensitivity score,COG-LL-317,-0.22
same,selective drug sensitivity score,COG-LL-332h,1.78
same,selective drug sensitivity score,TANOUE,-0.22
CNC(=O)c1ccc2cc([C@@]3(O)CCn4cncc43)ccc2c1 [Orteronel] (top concentration 10000 nM),selective drug sensitivity score,COG-LL-317,0
same,selective drug sensitivity score,COG-LL-332h,0
same,selective drug sensitivity score,TANOUE,0
COc1cc2/c(=N/c3ccc(Br)cc3F)nc[nH]c2cc1OCC1CCN(C)CC1 [Vandetanib] (top concentration 1000 nM),selective drug sensitivity score,COG-LL-317,-0.22
same,selective drug sensitivity score,COG-LL-332h,0.28
same,selective drug sensitivity score,TANOUE,-0.22
COc1cc2c(cc1OCCCN1CCCC1)N=C(N)C21CCC1 [A-366] (top concentration 25000 nM),selective drug sensitivity score,COG-LL-317,3.06
same,selective drug sensitivity score,COG-LL-332h,4.86
same,selective drug sensitivity score,TANOUE,-1.84
Cc1cc(C)c(CNC(=O)c2cc(-c3ccc(CN4CCOCC4)cc3)cc3c2cnn3C2CCCC2)c(=O)[nH]1 [EPZ-5687] (top concentration 10000 nM),selective drug sensitivity score,COG-LL-317,-0.36
same,selective drug sensitivity score,COG-LL-332h,-0.36
same,selective drug sensitivity score,TANOUE,-0.36
CCN(CC)CCN(Cc1ccc(-c2ccc(C(F)(F)F)cc2)cc1)C(=O)Cn1c(SCc2ccc(F)cc2)nc(=O)c2c1CCC2 [Darapladib] (top concentration 1000 nM),selective drug sensitivity score,COG-LL-317,-1.42
same,selective drug sensitivity score,COG-LL-332h,-0.92
same,selective drug sensitivity score,TANOUE,-1.42
C[C@@H]1C[C@H]2[C@@H]3CCC4=CC(=O)C=C[C@]4(C)[C@@]3(F)[C@@H](O)C[C@]2(C)[C@@]1(O)C(=O)CO [Dexamethasone] (top concentration 10000 nM),selective drug sensitivity score,COG-LL-317,11.3
same,selective drug sensitivity score,COG-LL-332h,1.88
same,selective drug sensitivity score,TANOUE,-1.42
CC(C)(C)C[C@@H]1N[C@@H](C(=O)N[C@H]2CC[C@H](O)CC2)[C@H](c2cccc(Cl)c2F)[C@]12C(=O)Nc1cc(Cl)ccc12 (top concentration 10000 nM),selective drug sensitivity score,COG-LL-317,19.9
same,selective drug sensitivity score,COG-LL-332h,8.66
same,selective drug sensitivity score,TANOUE,-7.84
COc1cc(C)[nH]c(=O)c1CNC(=O)c1c(C)n([C@H](C)C2CCOCC2)c2ccccc12 [CPI-360] (top concentration 10000 nM),selective drug sensitivity score,COG-LL-317,0
same,selective drug sensitivity score,COG-LL-332h,0
same,selective drug sensitivity score,TANOUE,0
CN1CCC(COc2cnc(-c3cccc(Cn4nc(-c5cccc(C#N)c5)ccc4=O)c3)nc2)CC1 [Tepotinib] (top concentration 1000 nM),selective drug sensitivity score,COG-LL-317,0.52
same,selective drug sensitivity score,COG-LL-332h,-0.08
same,selective drug sensitivity score,TANOUE,-0.08
CC(C)C(=O)Nc1ccc([N+](=O)[O-])c(C(F)(F)F)c1 [Flutamide] (top concentration 10000 nM),selective drug sensitivity score,COG-LL-317,-0.56
same,selective drug sensitivity score,COG-LL-332h,-0.56
same,selective drug sensitivity score,TANOUE,0.04
COc1cc2c(N3CCN(C(=O)Nc4ccc(OC(C)C)cc4)CC3)ncnc2cc1OCCCN1CCCCC1 [Tandutinib] (top concentration 1000 nM),selective drug sensitivity score,COG-LL-317,0.7
same,selective drug sensitivity score,COG-LL-332h,0
same,selective drug sensitivity score,TANOUE,0
COc1cc2ncnc(Nc3ccc(F)c(Cl)c3)c2cc1NC(=O)/C=C/CN1CCCCC1 [Dacomitinib] (top concentration 1000 nM),selective drug sensitivity score,COG-LL-317,-0.44
same,selective drug sensitivity score,COG-LL-332h,-0.84
same,selective drug sensitivity score,TANOUE,-1.64
COc1cc2c(Oc3ccc4[nH]c(C)cc4c3F)ncnc2cc1OCCCN1CCCC1 [Cediranib] (top concentration 1000 nM),selective drug sensitivity score,COG-LL-317,0.1
same,selective drug sensitivity score,COG-LL-332h,0
same,selective drug sensitivity score,TANOUE,0
CNC(=O)c1ccc(-c2cnc3ncc(Cc4ccc5ncccc5c4)n3n2)cc1F [Capmatinib] (top concentration 1000 nM),selective drug sensitivity score,COG-LL-317,0.34
same,selective drug sensitivity score,COG-LL-332h,-0.06
same,selective drug sensitivity score,TANOUE,0.44
CS(=O)(=O)CCNCc1ccc(-c2ccc3ncnc(Nc4ccc(OCc5cccc(F)c5)c(Cl)c4)c3c2)o1 [Lapatinib] (top concentration 1000 nM),selective drug sensitivity score,COG-LL-317,0
same,selective drug sensitivity score,COG-LL-332h,0
same,selective drug sensitivity score,TANOUE,0
CCCN(CCC)C(=O)C1=Cc2ccc(-c3ccc(C(=O)N4CCCC4)cc3)cc2N=C(N)C1 [Motolimod] (top concentration 10000 nM),selective drug sensitivity score,COG-LL-317,-4.08
same,selective drug sensitivity score,COG-LL-332h,-3.18
same,selective drug sensitivity score,TANOUE,-4.48
COCCOc1cnc2ccn([C@H](C)c3nnc4c(F)cc(-c5cnn(C)c5)cn34)c(=O)c2c1 [AMG-337] (top concentration 10000 nM),selective drug sensitivity score,COG-LL-317,-0.06
same,selective drug sensitivity score,COG-LL-332h,-0.06
same,selective drug sensitivity score,TANOUE,-0.06
C=CCN(/C=C1/C(=O)O[C@H](COC)[C@@]2(C)C1=C(O)C(=O)C1=C2[C@H](OC(C)=O)C[C@]2(C)C(=O)CC[C@@H]12)CC=C [Sonolisib] (top concentration 10000 nM),selective drug sensitivity score,COG-LL-317,-0.06
same,selective drug sensitivity score,COG-LL-332h,-0.66
same,selective drug sensitivity score,TANOUE,-0.76
O=c1[nH]cc(F)c(=O)[nH]1 [Fluorouracil] (top concentration 10000 nM),selective drug sensitivity score,COG-LL-317,8.26
same,selective drug sensitivity score,COG-LL-332h,4.26
same,selective drug sensitivity score,TANOUE,-0.64
NC(=S)N/N=C/c1ncccc1N [Triapine] (top concentration 10000 nM),selective drug sensitivity score,COG-LL-317,0.88
same,selective drug sensitivity score,COG-LL-332h,2.78
same,selective drug sensitivity score,TANOUE,-1.32
